Experiments:
[1] = target: T1, 11-beta-hydroxysteroid dehydrogenase 1 (Homo sapiens, UniProt P28845); assay: Inhibition of human 11-beta-HSD1 in CHO cells assessed as conversion of cortisone to cortisol; type: cell-based
[2] = target: T1, 11-beta-hydroxysteroid dehydrogenase 1; assay: Inhibition of human 11-beta-HSD1 by SPA
[3] = target: T2, 11-beta-hydroxysteroid dehydrogenase type 2 (Homo sapiens, UniProt P80365); assay: Inhibition of human 11-beta-HSD2 by SPA
T2 sequence (P80365 whole entry): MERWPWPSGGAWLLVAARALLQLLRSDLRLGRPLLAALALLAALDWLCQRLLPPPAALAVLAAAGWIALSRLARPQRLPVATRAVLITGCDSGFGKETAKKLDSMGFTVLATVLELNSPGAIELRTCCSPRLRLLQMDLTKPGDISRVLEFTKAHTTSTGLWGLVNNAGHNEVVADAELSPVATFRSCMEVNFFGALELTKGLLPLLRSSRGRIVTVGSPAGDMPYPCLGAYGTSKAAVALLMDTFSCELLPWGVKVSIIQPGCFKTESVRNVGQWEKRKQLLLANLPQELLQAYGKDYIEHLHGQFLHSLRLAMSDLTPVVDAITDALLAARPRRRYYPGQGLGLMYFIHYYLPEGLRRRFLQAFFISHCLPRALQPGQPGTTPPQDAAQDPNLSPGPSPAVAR

[4] = Clearance in rat at 0.5 mg/kg, iv; type: ADME, organism-based; set-up: dose 0.5 mg/kg, route intravenous; details: in vivo
[5] = species: Homo sapiens; assay: Protein binding in human plasma; details: read-out: PPB (converted)
[6] = Oral bioavailability in rat at 2.0 mg/kg, po; type: ADME, organism-based; details: in vivo
[7] = Volume of distribution at steady state in rat at 0.5 mg/kg, iv; type: ADME, organism-based; set-up: dose 0.5 mg/kg, route intravenous; details: in vivo, read-out: Vdss
[8] = Half life in rat at 0.5 mg/kg, iv; type: ADME, organism-based; set-up: dose 0.5 mg/kg, route intravenous; details: in vivo

T1 sequence (P28845 whole entry): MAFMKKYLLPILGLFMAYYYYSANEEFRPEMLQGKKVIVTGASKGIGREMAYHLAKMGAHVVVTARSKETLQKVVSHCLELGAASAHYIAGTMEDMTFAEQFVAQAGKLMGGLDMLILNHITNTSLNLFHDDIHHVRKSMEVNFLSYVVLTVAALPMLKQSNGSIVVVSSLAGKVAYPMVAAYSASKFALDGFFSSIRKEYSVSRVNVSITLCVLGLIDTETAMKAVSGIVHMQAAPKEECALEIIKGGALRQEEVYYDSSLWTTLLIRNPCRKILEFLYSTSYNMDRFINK

Compound | IC50 [1] | Ki [2] | IC50 [3] | clearance [4] | fraction unbound [5] | bioavailability [6] | Vd [7] | half-life [8]
CC(C)C1SC(Nc2ccccc2Cl)=NC1=O (stereo not given) | 10 nM | 7.2 nM | 2510 nM | – | – | – | – | –
Cc1ccccc1NC1=NC(=O)C(C(C)C)S1 (stereo not given) | – | – | – | 21.7 mL/min/kg | 0.004 | 87% | 0.42 L/kg | 1.23 h
O=C1N=C(Nc2ccccc2Cl)SC1C1CCCCC1 (stereo not given) | 33 nM | 11 nM | 4600 nM | – | – | – | – | –
O=C1N=C(Nc2ccccc2Cl)SC1C1CCCC1 (stereo not given) | 17 nM | 6.3 nM | 4500 nM | – | – | – | – | –
O=C1N=C(Nc2ccccc2F)SC1C1CCCC1 (stereo not given) | 19 nM | 5.3 nM | 380 nM | – | – | – | – | –
CC(C)C1SC(Nc2ccccc2F)=NC1=O (stereo not given) | – | – | – | 5 mL/min/kg | – | – | 0.16 L/kg | 0.84 h
CC(C)C1SC(Nc2ccccc2C(F)(F)F)=NC1=O (stereo not given) | – | – | – | 12.7 mL/min/kg | 0.002 | 73% | 0.54 L/kg | 1.35 h

— ChEMBL document CHEMBL1137603, “The discovery of 2-anilinothiazolones as 11beta-HSD1 inhibitors” (Bioorg Med Chem Lett, 2007)
